US20080242661A1, “Novel compounds useful for the treatment of degenerative & inflammatory diseases” (priority 2006, published 2008)

Key:
purified PDE1A enzyme [1] = biological target: T1, purified PDE1A enzyme (Homo sapiens, UniProt P54750); experiment: In vitro PDE1A assay, dose response (Biomol Cyclic Nucleotide Phosphodiesterase Assay Kit, colorimetric); format: biochemical; conditions: for IC50: 100 μM cAMP, 45 min at 37° C., 8 points from 20 μM, duplicate
Method in brief: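 Purified PDE1A with 100 μM cAMP and 5′-nucleotidase, incubated 45 min at 37° C in Tris 20 mM pH 7.4 with calmodulin, MgCl2 and CaCl2; released phosphate read by malachite-green absorbance at 615 nm. Duplicate 8-point ⅓ dilutions from 20 μM in 1% DMSO; 10 μM vardenafil defines 100% inhibition.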

purified PDE1A enzyme [2] = biological target: T1, purified PDE1A enzyme; experiment: In vitro PDE1A primary screening assay (Cisbio cAMP dynamic htrf kit); format: biochemical; conditions: 100 nM cAMP; for inhibition at 10 µM: read-out: inhibition of PDE1A (control compounds, primary screening)
Source text: For the primary screening, an assay using the cAMP dynamic htrf kit from Cisbio (catnr 62AM2PEB) was used. Its principle is based on HTRF® technology (Homogeneous Time-Resolved Fluorescence). The method is a competitive immunoassay between native cAMP and the cAMP labeled with XL665. The tracer binding is visualized by a monoclonal antibody against cAMP, labeled with Cryptate. The specific signal (i.e. energy transfer) is inversely proportional to the concentration of cAMP in the sample (see FIG. 1).
For the enzymatic reaction a mix of 20 μL is made with purified PDE1A enzyme, 100 nM cAMP and the compound (10 μM in a final concentration of 1% DMSO) in a black 384-plate. The reaction buffer is Tris 20 mM pH 7.4, 4 μg/mL calmodulin, 3 mM MgCl2, 1.5 mM CaCl2, 0.2 mg/mL BSA and 0.001% Brij-35. After an incubation of 30 minutes at room temperature, the reaction is stopped by the addition of 10 μL labelled cAMP-XL665 and 10 μL anti-cAMP-Cryptate. After 1 hour incubation at room temperature, the readout is performed on the Envision (excitation 360 nm; emission donor 615 nm emission acceptor 665 nm).
PDE1A hydrolyses cAMP into 5′AMP; this low cAMP concentration will result in a high signal. A PDE1A inhibitor will result in a decrease of the signal.
As a positive control we used 10 μM Vardenafil (100% inhibition), as negative control is used 1% DMSO (0% inhibition), as variable control 10 μM Zaprinast (+/−50% inhibition) is used and as negative control compound 10 μM Ro-20-1724 (0% inhibition). The positive and negative control were used to calculate z′ and PIN values.
All compounds were screened in single at 10 μM. The hit criterium was set at PIN 50 (50% inhibition).

SMILES	IC50 (purified PDE1A enzyme [1]) [nM]	also measured
CCCc1nn(C)c2c(=O)[nH]c(N(C)CC(C)CC)nc12 (stereo not shown) [Example 112, 1-methyl-5-(methyl(2-methylbutyl)amino)-3-propyl-1H-pyrazolo[4,3-d]pyrimidin-7(6H)-one]	101 to 500	
CCCc1nn(C)c2c(=O)[nH]c(N(Cc3cccc(-n4cncn4)c3)CC(C)CC)nc12 (stereo not shown) [Example 116]	< 100	
CCC(C)CN(Cc1cccc(N2CCOCC2)c1)c1nc2c(C(C)(C)C)nn(C)c2c(=O)[nH]1 (stereo not shown) [Example 117, 3-tert-butyl-1-methyl-5-((2-methylbutyl)(3-morpholinobenzyl)amino)-1H-pyrazolo[4,3-d]pyrimidin-7(6H)-one]	< 100	
CCC(C)CN(Cc1cccc(-n2cncn2)c1)c1nc2c(C(C)(C)C)nn(C)c2c(=O)[nH]1 (stereo not shown) [Example 118]	< 100	
CCCc1nn(C)c2c(=O)[nH]c(N(Cc3cccc(-n4cccn4)c3)CC(C)(C)C)nc12 [Example 119]	< 100	
CCCc1nn(C)c2c(=O)[nH]c(NCc3ccc(S(N)(=O)=O)cc3)nc12 [Example 120, 4-((1-methyl-7-oxo-3-propyl-6,7-dihydro-1H-pyrazolo[4,3-d]pyrimidin-5-ylamino)methyl)benzenesulfonamide]	> 500	
CCC(CC)CN(Cc1cccc(-n2cccn2)c1)c1nc2c(C(C)(C)C)nn(C)c2c(=O)[nH]1 [Example 121]	< 100	
CCCC(C)CN(Cc1cccc(-n2cccn2)c1)c1nc2c(C(C)(C)C)nn(C)c2c(=O)[nH]1 (stereo not shown) [Example 122]	< 100	
CCCc1nn(C)c2c(=O)[nH]c(N(C)CC(C)CCC)nc12 (stereo not shown) [Example 123, 1-methyl-5-(methyl(2-methylpentyl)amino)-3-propyl-1H-pyrazolo[4,3-d]pyrimidin-7(6H)-one]	101 to 500	
CCn1nc(C(C)(C)C)c2nc(N(Cc3cccc(N4CCOCC4)c3)CC(C)C)[nH]c(=O)c21 [Example 124, 3-tert-butyl-1-ethyl-5-(isobutyl(3-morpholinobenzyl)amino)-1H-pyrazolo[4,3-d]pyrimidin-7(6H)-one]	> 500	
CCCN(CCC)c1nc2c(C3CC3)nn(C)c2c(=O)[nH]1 [Example 125, 3-cyclopropyl-5-(dipropylamino)-1-methyl-1H-pyrazolo[4,3-d]pyrimidin-7(6H)-one]	101 to 500	
CCCCOc1cc(CC2CNC(=O)N2)ccc1OC (stereo not shown) [Ro-20-1724]		inhibition of PDE1A (control compounds, primary screening) (purified PDE1A enzyme [2]; 10 μM): 0%
CCCc1nc(C)c2c(=O)[nH]c(-c3cc(S(=O)(=O)N4CCN(CC)CC4)ccc3OCC)nn12 [Vardenafil, reference compound]		inhibition at 10 µM (purified PDE1A enzyme [2]): 100%; inhibition at 10 µM (purified PDE1A enzyme [1]; 10 μM, read-out: inhibition of PDE1A (positive control, dose response assay)): 100%
CCCOc1ccccc1-c1nc2nn[nH]c2c(=O)[nH]1 [Zaprinast]		inhibition at 10 µM (purified PDE1A enzyme [2]): ~50%

The next lines start with results.

IC50 (purified PDE1A enzyme [1]) [nM]	SMILES	also measured
< 100	CCCc1nn(C)c2c(=O)[nH]c(N(CCC(C)(C)C)Cc3cccc(N4CCOCC4)c3)nc12 [Example 108, 5-((3,3-dimethylbutyl)(3-morpholinobenzyl)amino)-1-methyl-3-propyl-1H-pyrazolo[4,3-d]pyrimidin-7(6H)-one]	
< 100	CCC(CC)CN(Cc1cccc(N2CCOCC2)c1)c1nc2c(C(C)(C)C)nn(C)c2c(=O)[nH]1 [Example 109, 3-tert-butyl-5-((2-ethylbutyl)(3-morpholinobenzyl)amino)-1-methyl-1H-pyrazolo[4,3-d]pyrimidin-7(6H)-one]	
< 100	CCCc1nn(C)c2c(=O)[nH]c(N(C)CCC(C)(C)C)nc12 [Example 110, 5-((3,3-dimethylbutyl)(methyl)amino)-1-methyl-3-propyl-1H-pyrazolo[4,3-d]pyrimidin-7(6H)-one]	
< 100	CN(CCC(C)(C)C)c1nc2c(C(C)(C)C)nn(C)c2c(=O)[nH]1 [Example 111, 3-tert-butyl-5-((3,3-dimethylbutyl)(methyl)amino)-1-methyl-1H-pyrazolo[4,3-d]pyrimidin-7(6H)-one]	
< 100	CCCc1nn(C)c2c(=O)[nH]c(N(Cc3cccc(N4CCOCC4)c3)CC(C)CCC)nc12 (stereo not shown) [Example 113, 1-methyl-5-((2-methylpentyl)(3-morpholinobenzyl)amino)-3-propyl-1H-pyrazolo[4,3-d]pyrimidin-7(6H)-one]	
< 100	CCCc1nn(C)c2c(=O)[nH]c(N(Cc3cccc(N4CCOCC4)c3)CC(C)CC)nc12 (stereo not shown) [Example 114, 1-methyl-5-((2-methylbutyl)(3-morpholinobenzyl)amino)-3-propyl-1H-pyrazolo[4,3-d]pyrimidin-7(6H)-one]	
< 100	CCCC(C)CN(C)c1nc2c(C(C)(C)C)nn(C)c2c(=O)[nH]1 (stereo not shown) [Example 115, 3-tert-butyl-1-methyl-5-(methyl(2-methylpentyl)amino)-1H-pyrazolo[4,3-d]pyrimidin-7(6H)-one]	
